From paper PMC9780499, “Designing double-site lipidated peptide amphiphiles as potent antimicrobial biomaterials to combat multidrug-resistant bacteria” (Frontiers in Microbiology, 2022)
Converted amounts (≈) assume the structure as drawn. Read-outs that look alike come from different tables or passages of the source. Ends that are not written are not given here. Peptide text beside a SMILES is read from it. * marks the point of attachment. Decanoyl = CCCCCCCCCC(=O)*; Butyryl = CCCC(=O)*

Tests used:
[1] = test system: E. coli HP73; experiment: microbe, parasite or virus in culture; format: cell-based, Escherichia coli; settings: read-out: MICs, E. coli HP73
Text: (§1) Escherichia coli ATCC25922, E. coli UB1005, Pseudomonas aeruginosa ATCC27853, Salmonella typhimurium ATCC14028, S. typhimurium C7731, Staphylococcus aureus ATCC29213, Methicillin-resistant S. aureus (MRSA) ATCC43300, S. epidermidis ATCC12228, and Enterococcus faecalis ATCC29212 were stored by the institute of animal nutrition, Northeast Agricultural University (Harbin, China). Multidrug-Resistant E. coli HP73 and E. coli HP74 were clinically isolated from swine-derived Escherichia coli and stored by the institute of animal nutrition, Northeast Agricultural University (Harbin, China).
(§2) The MICs were determined using a broth microdilution method with reference to Clinical and Laboratory Standards Institute (CLSI) guidelines ([Wiegand et al., 2008]). After a two-fold serial dilution of the peptides (50 μl, dilution buffer: 0.01% acetic acid containing 0.2% BSA) prepared in a 96-well plate, a series of an equal volume of bacterial solution (50 μl) prepared in Mueller-Hinton broth (MHB) were added to the same 96-well plate, and the final bacterial inoculum size in each well of the 96-well plate was approximately 5 × 10^5 CFU/ml. As positive and negative controls, bacteria solution without peptides and blank samples without bacteria were prepared in the same 96-well plate. […] The lowest peptide concentration at which there was no increase in optical density was referred to as the MIC.

[2] = test system: E. coli HP74; experiment: microbe, parasite or virus in culture; format: cell-based, Escherichia coli; settings: read-out: MICs, E. coli HP74
Text: as §1, §2

[3] = test system: HEK293T; experiment: MTT cytotoxicity assay; format: cell-based, human; settings: 1 day incubation; for Cytotoxicity toward HEK293T: at the test concentrations
Procedure: (§3) 3-(4,5-dimethylthiozol-2-yl)-2,5-diphenyltetrazolium bromide (MTT) assay and live/dead cell staining assay were conducted to assess the peptide cytotoxicity. For the MTT assay, cell lines were seeded and passaged twice in high-glucose Dulbecco’s modified Eagle’s medium (DMEM, containing 100 μg/ml streptomycin, 100 U/ml penicillin, and 10% vol/vol fetal bovine serum) or Dulbecco’s Modified Eagle Medium/Nutrient Mixture F-12 (DMEM/F-12, containing 100 μg/ml streptomycin, 100 U/ml penicillin, and 10% vol/vol fetal bovine serum) at a 5% CO2 incubator (37°C). The cells (approximately 50,000 cells per well) were cultured in a 96-well plate at a 5% CO2 incubator for 1 day. Then various concentrations of peptide solutions (50 μl) were added to the plate and incubated for another 1 day. The cells solution without peptides and blank samples without cells and peptides were prepared in the same 96-well plate as positive and negative controls, respectively. Subsequently, MTT (0.5 mg/ml, 20 μl per well) was added and the plate was incubated for another 4 h. Removed all supernatant from the plate and added 150 μl of dimethyl sulfoxide. Finally, a microplate reader (Tecan GENios F129004, Austria) was used to record the absorbance data at OD570 nm. Melittin was employed as a control peptide. The cell viability was calculated using the previously described equation ([Lai et al., 2021]).

[4] = test system: IPEC-J2; experiment: MTT cytotoxicity assay; format: cell-based, porcine; settings: 1 day incubation; for Cytotoxicity toward IPEC-J2: at the test concentrations
Procedure: as §3

[5] = test system: E. coli 25922; format: cell-based, Escherichia coli; settings: 25922, 20 h
Text: as §1, §2

[6] = test system: E. coli UB1005; format: cell-based, Escherichia coli; settings: UB1005, 20 h
Text: as §1, §2

[7] = test system: P. aeruginosa 27853; format: cell-based, Pseudomonas aeruginosa; settings: 27853, 20 h
Text: as §1, §2

[8] = test system: S. typhimurium 14028; format: cell-based, Salmonella typhimurium; settings: 14028, 20 h
Text: as §1, §2

[9] = test system: S. typhimurium C7731; format: cell-based, Salmonella typhimurium; settings: C7731, 20 h
Text: as §1, §2

[10] = test system: S. aureus 29213; format: cell-based, Staphylococcus aureus; settings: 29213, 20 h
Text: as §1, §2

[11] = test system: S. epidermidis 12228; format: cell-based; settings: 12228, 20 h
Text: as §1, §2

[12] = test system: E. faecalis 29212; format: cell-based, Enterococcus faecalis; settings: 29212, 20 h
Text: as §1, §2

[13] = test system: MRSA 43300; format: cell-based, Methicillin-resistant S. aureus; settings: 43300, 20 h
Text: as §1, §2

[14] = test system: 9 bacterial strains; experiment: Geometric mean MIC over the 9 bacterial strains; format: cell-based; settings: geometric mean of the 9 strains of Table 1
Procedure: as §2

[15] = Escherichia coli, HP73, multidrug-resistant, colistin-resistant swine clinical isolate, broth microdilution, MHB, 37°C 20 h
[16] = Escherichia coli, HP74, multidrug-resistant, colistin-resistant swine clinical isolate, broth microdilution, MHB, 37°C 20 h
[17] = multidrug-resistant, colistin-resistant swine clinical isolate, broth microdilution, MHB, 37°C 20 h

## CC(C)(O/N=C(\C(=O)N[C@@H]1C(=O)N2C(C(=O)[O-])=C(C[n+]3ccccc3)CS[C@H]12)c1csc(N)n1)C(=O)O [Ceftazidime]
[1]; [15]
  MIC: 128 µM (≈ 70 µg/mL)
[2]; [16]
  MIC: 32 µM (≈ 17.5 µg/mL)

## CC[C@H]1OC(=O)[C@H](C)[C@@H](O[C@H]2C[C@@](C)(OC)[C@@H](O)[C@H](C)O2)[C@H](C)[C@@H](O[C@@H]2O[C@H](C)C[C@H](N(C)C)[C@H]2O)[C@](C)(O)C[C@@H](C)C(=O)[C@H](C)[C@@H](O)[C@]1(C)O [Erythromycin]
[1]; [15]
  MIC: > 128 µM
[2]; [16]
  MIC: > 128 µM

## CNC(C)C1CCC(N)C(OC2C(N)CC(N)C(OC3OCC(C)(O)C(NC)C3O)C2O)O1 (stereo not shown) [Gentamicin]
[1]; [15]
  MIC: 128 µM (≈ 61.1 µg/mL)
[2]; [16]
  MIC: 128 µM (≈ 61.1 µg/mL)

## CC[C@H](C)[C@H](NC(=O)CN)C(=O)NCC(=O)N[C@@H](C)C(=O)N[C@H](C(=O)N[C@@H](CC(C)C)C(=O)N[C@@H](CCCCN)C(=O)N[C@H](C(=O)N[C@@H](CC(C)C)C(=O)N[C@H](C(=O)N[C@H](C(=O)NCC(=O)N[C@@H](CC(C)C)C(=O)N1CCC[C@H]1C(=O)N[C@@H](C)C(=O)N[C@@H](CC(C)C)C(=O)N[C@H](C(=O)N[C@@H](CO)C(=O)N[C@@H](Cc1c[nH]c2ccccc12)C(=O)N[C@H](C(=O)N[C@@H](CCCCN)C(=O)N[C@@H](CCCNC(=N)N)C(=O)N[C@@H](CCCCN)C(=O)N[C@@H](CCCNC(=N)N)C(=O)N[C@@H](CCC(N)=O)C(=O)N[C@@H](CCC(N)=O)C(N)=O)[C@@H](C)CC)[C@@H](C)CC)[C@@H](C)O)[C@@H](C)O)C(C)C)C(C)C [Melittin, reference compound]
[3]
  Concentration above which significant cytotoxicity toward HEK293T: greater than 8 μM
[4]
  Concentration above which significant cytotoxicity toward IPEC-J2: > 16 µM

## CCn1cc(C(=O)O)c(=O)c2cc(F)c(N3CCNCC3)cc21 [Norfloxacin]
[1]; [15]
  MIC: > 128 µM
[2]; [16]
  MIC: 128 µM (≈ 40.9 µg/mL)

## CC1COc2c(N3CCN(C)CC3)c(F)cc3c(=O)c(C(=O)O)cn1c23 (stereo not shown) [Ofloxacin]
[1]; [15]
  MIC: > 128 µM
[2]; [16]
  MIC: > 128 µM

## CO[C@H]1/C=C/O[C@@]2(C)Oc3c(C)c(O)c4c(O)c(c(/C=N/N5CCN(C)CC5)c(O)c4c3C2=O)NC(=O)/C(C)=C\C=C\[C@H](C)[C@H](O)[C@@H](C)[C@@H](O)[C@@H](C)[C@H](OC(C)=O)[C@@H]1C [Rifampicin]
[1]; [15]
  MIC: > 128 µM
[2]; [16]
  MIC: 16 µM (≈ 13.2 µg/mL)

## CN[C@H](CC(C)C)C(=O)N[C@H]1C(=O)N[C@@H](CC(N)=O)C(=O)N[C@H]2C(=O)N[C@H]3C(=O)N[C@H](C(=O)N[C@H](C(=O)O)c4cc(O)cc(O)c4-c4cc3ccc4O)[C@H](O)c3ccc(c(Cl)c3)Oc3cc2cc(c3O[C@@H]2O[C@H](CO)[C@@H](O)[C@H](O)[C@H]2O[C@H]2C[C@](C)(N)[C@H](O)[C@H](C)O2)Oc2ccc(cc2Cl)[C@H]1O [Vancomycin]
[1]; Escherichia coli, HP73, 20 h
  MIC: 64 µM (≈ 92.8 µg/mL)
[2]; Escherichia coli, HP74, 20 h
  MIC: 32 µM (≈ 46.4 µg/mL)

## CCCC(=O)NCCCC[C@H](NC(=O)[C@H](CC(C)C)NC(=O)[C@H](CCCCN)NC(=O)[C@H](CCCCN)NC(=O)[C@H](CC(C)C)NC(=O)[C@H](CCCCNC(=O)CCC)NC(=O)[C@H](CCCCN)NC(=O)[C@H](CCCCN)NC(=O)[C@H](CC(C)C)NC(=O)[C@H](CCCCN)NC(=O)[C@H](CCCCN)NC(=O)[C@H](CC(C)C)NC(=O)[C@@H](N)Cc1c[nH]c2ccccc12)C(=O)N[C@@H](CCCCN)C(=O)N[C@@H](CCCCN)C(=O)O [WL-C4] (H-WLKKLKKK(Butyryl)LKKLK(Butyryl)KK-OH)
[5]
  MICs, E. coli 25922: 8 µM
[6]
  MICs, E. coli UB1005: 4 µM
[7]
  MICs, P. aeruginosa 27853: 2 µM
[8]
  MICs, S. typhimurium 14028: 4 µM
[9]
  MICs, S. typhimurium C7731: 4 µM
[10]
  MICs, S. aureus 29213: 16 µM
[11]
  MICs, S. epidermidis 12228: 16 µM
[12]
  MICs, E. faecalis 29212: 32 µM
[13]
  MICs, MRSA 43300: 16 µM
[14]
  GM, geometric mean MICs from the 9 bacterial strains: 8.00 µM
[3]
  Cytotoxicity toward HEK293T: no significant cytotoxicity
[4]
  Cytotoxicity toward IPEC-J2: no significant cytotoxicity

## CCCCCCCCCC(=O)NCCCC[C@H](NC(=O)[C@H](CC(C)C)NC(=O)[C@H](CCCCN)NC(=O)[C@H](CCCCN)NC(=O)[C@H](CC(C)C)NC(=O)[C@H](CCCCNC(=O)CCCCCCCCC)NC(=O)[C@H](CCCCN)NC(=O)[C@H](CCCCN)NC(=O)[C@H](CC(C)C)NC(=O)[C@H](CCCCN)NC(=O)[C@H](CCCCN)NC(=O)[C@H](CC(C)C)NC(=O)[C@@H](N)Cc1c[nH]c2ccccc12)C(=O)N[C@@H](CCCCN)C(=O)N[C@@H](CCCCN)C(=O)O [WL-C10] (H-WLKKLKKK(Decanoyl)LKKLK(Decanoyl)KK-OH)
[5]
  MICs, E. coli 25922: >64 µM
[6]
  MICs, E. coli UB1005: 16 µM
[7]
  MICs, P. aeruginosa 27853: >128 µM
[8]
  MICs, S. typhimurium 14028: >128 µM
[9]
  MICs, S. typhimurium C7731: >128 µM
[10]
  MICs, S. aureus 29213: >128 µM
[11]
  MICs, S. epidermidis 12228: >128 µM
[12]
  MICs, E. faecalis 29212: >128 µM
[13]
  MICs, MRSA 43300: >128 µM
[14]
  GM, geometric mean MICs from the 9 bacterial strains: 94.06 µM
[3]
  Concentration above which significant cytotoxicity toward HEK293T: greater than 32 μM
[4]
  Concentration above which significant cytotoxicity toward IPEC-J2: greater than 32 μM

## Colistin
[1]; [17]
  MIC: 4 µM
[2]; [17]
  MIC: 4 µM

## Kanamycin A
[1]; [17]
  MIC: >128 µM
[2]; [17]
  MIC: >128 µM

## Polymyxin B
[1]; [17]
  MIC: 8 µM
[2]; [17]
  MIC: 4 µM

## WLKKLKKK(Ac)LKKLK(Ac)KK [WL-C2]
[5]
  MICs, E. coli 25922: 8 µM
[6]
  MICs, E. coli UB1005: 8 µM
[7]
  MICs, P. aeruginosa 27853: 16 µM
[8]
  MICs, S. typhimurium 14028: 16 µM
[9]
  MICs, S. typhimurium C7731: 16 µM
[10]
  MICs, S. aureus 29213: 64 µM
[11]
  MICs, S. epidermidis 12228: 64 µM
[12]
  MICs, E. faecalis 29212: 128 µM
[13]
  MICs, MRSA 43300: 64 µM
[14]
  GM, geometric mean MICs from the 9 bacterial strains: 27.43 µM
[3]
  Cytotoxicity toward HEK293T: no significant cytotoxicity
[4]
  Cytotoxicity toward IPEC-J2: no significant cytotoxicity

## WLKKLKKKLKKLKKK [WL]
[5]
  MICs, E. coli 25922: 32 µM
[6]
  MICs, E. coli UB1005: 32 µM
[7]
  MICs, P. aeruginosa 27853: 32 µM
[8]
  MICs, S. typhimurium 14028: 32 µM
[9]
  MICs, S. typhimurium C7731: 32 µM
[10]
  MICs, S. aureus 29213: 128 µM
[11]
  MICs, S. epidermidis 12228: 128 µM
[12]
  MICs, E. faecalis 29212: >128 µM
[13]
  MICs, MRSA 43300: 128 µM
[14]
  GM, geometric mean MICs from the 9 bacterial strains: 64.00 µM
[3]
  Cytotoxicity toward HEK293T: no significant cytotoxicity
[4]
  Cytotoxicity toward IPEC-J2: no significant cytotoxicity
